Tested on: lysis of EA
Experiment: CH50 test of C5 proteins in 1.5% C5-depleted human sera with EA
Assay type: cell-based
Details: 1.5% C5-depleted human sera supplemented with C5 protein
Description: Recombinant human C5 R885 variants (rhC5 R885C and rhC5 R885H) were prepared in-house ( Supplementary Material ). Their activities on complement activation were examined by the CH50 test using 1.5% C5-depleted human sera supplemented with C5 R885 variants. […] Other procedures and data analysis are described in Section 2.3.
Supplementary Figure 2. Determination of CH50 of the hemolysis by C5 from different sources. Wild type C5 purified from human sera (hC5 compTech) (Complement Technologies), recombinant C5 wild type (rhC5 WT), recombinant C5 variant R885C (rhC5 R885C), and recombinant C5 variant R885H (rhC5 R885H). Various concentrations of protein C5 were added to 1.5% C5-depleted human sera followed by incubation with EA (0.5×) in GVB++ buffer. All data were from 2 plates (duplicate in each plate).

Row | Substance | CH50 [nM]
1 | C5 wt: Wild-type human C5, purified from human sera or recombinant (rhC5 wt) | 0.2 to 0.3
2 | rhC5 R885C: Recombinant human C5 variant with single mutation R885C, prepared in-house | 5.2
3 | rhC5 R885H: Recombinant human C5 variant with single mutation R885H, prepared in-house | 1.1

Source: publication PMC10446491 (Frontiers in Immunology, 2023)
